Laboratory results: ChEMBL document CHEMBL2069169, “Novel triazines as potent and selective phosphodiesterase 10A inhibitors” (Bioorg Med Chem Lett, 2012)

Key:
[1] = biological target: Phosphodiesterase 4 (Homo sapiens, UniProt P27815+Q08499+Q07343+Q08493); test: Inhibition of PDE4; assay type: protein assay
[2] = biological target: cGMP-specific 3',5'-cyclic phosphodiesterase (Canis lupus familiaris, UniProt O77746); test: Inhibition of PDE5; set-up: species or system Homo sapiens
[3] = biological target: Phosphodiesterase 6; test: Inhibition of PDE6; assay type: protein assay, Homo sapiens
[4] = biological target: cGMP-dependent 3',5'-cyclic phosphodiesterase (Homo sapiens, UniProt O00408); test: Inhibition of PDE2
[5] = biological target: Phosphodiesterase 3 (Homo sapiens, UniProt Q14432+Q13370); test: Inhibition of PDE3; assay type: protein assay
[6] = biological target: cAMP and cAMP-inhibited cGMP 3',5'-cyclic phosphodiesterase 10A (Homo sapiens, UniProt Q9Y233); test: Inhibition of human recombinant PDE10A-catalyzed cAMP hydrolysis
[7] = organism: Homo sapiens; test: Selectivity ratio of IC50 PDE2 to IC50 for human recombinant PDE10A
[8] = system: Rattus norvegicus; test: Antipsychotic activity in po dosed rat assessed as reduction of MK801-induced hyperactivity; assay type: functional; set-up: Activity: scale not given: the % may be the effect or the level left; conditions: for minimal effective dose: Rattus norvegicus, po, read-out: MED
[9] = organism: Homo sapiens; test: Selectivity ratio of IC50 PDE5 to IC50 for human recombinant PDE10A
[10] = system: Rattus norvegicus; test: Antipsychotic activity in po dosed rat assessed as reduction of MK801-induced stereotyped sniffing; assay type: functional; set-up: Activity: scale not given: the % may be the effect or the level left; conditions: for minimal effective dose: Rattus norvegicus, po, read-out: MED
[11] = organism: Homo sapiens; test: Selectivity ratio of IC50 PDE3 to IC50 for human recombinant PDE10A
[12] = organism: Homo sapiens; test: Selectivity ratio of IC50 PDE6 to IC50 for human recombinant PDE10A
[13] = organism: Homo sapiens; test: Selectivity ratio of IC50 PDE4 to IC50 for human recombinant PDE10A
[14] = organism: Homo sapiens; test: Selectivity ratio of IC50 PDE8 to IC50 for human recombinant PDE10A
[15] = organism: Homo sapiens; test: Selectivity ratio of IC50 PDE7 to IC50 for human recombinant PDE10A
[16] = organism: Homo sapiens; test: Selectivity ratio of IC50 PDE11 to IC50 for human recombinant PDE10A
[17] = organism: Homo sapiens; test: Selectivity ratio of IC50 PDE1 to IC50 for human recombinant PDE10A
[18] = organism: Homo sapiens; test: Selectivity ratio of IC50 PDE9 to IC50 for human recombinant PDE10A
[19] = Oral bioavailability in rat at 10 mg/kg; assay type: ADME, organism-based; conditions: in vivo
[20] = Volume of distribution at steady state in rat at 2 mg/kg, iv and 10 mg/kg, po; assay type: ADME, organism-based; conditions: in vivo, read-out: Vdss
[21] = Elimination half life in rat at 2 mg/kg, iv and 10 mg/kg, po; assay type: ADME, organism-based; conditions: in vivo, read-out: beta t1/2 (converted)
[22] = AUC in rat plasma at 2 mg/kg, iv and 10 mg/kg, po; assay type: ADME, organism-based
[23] = Clearance in rat at 2 mg/kg, iv and 10 mg/kg, po; assay type: ADME, organism-based; conditions: in vivo
[24] = AUC in rat brain at 2 mg/kg, iv and 10 mg/kg, po; assay type: ADME, organism-based

cGMP-dependent 3',5'-cyclic phosphodiesterase, sequence (O00408 whole entry): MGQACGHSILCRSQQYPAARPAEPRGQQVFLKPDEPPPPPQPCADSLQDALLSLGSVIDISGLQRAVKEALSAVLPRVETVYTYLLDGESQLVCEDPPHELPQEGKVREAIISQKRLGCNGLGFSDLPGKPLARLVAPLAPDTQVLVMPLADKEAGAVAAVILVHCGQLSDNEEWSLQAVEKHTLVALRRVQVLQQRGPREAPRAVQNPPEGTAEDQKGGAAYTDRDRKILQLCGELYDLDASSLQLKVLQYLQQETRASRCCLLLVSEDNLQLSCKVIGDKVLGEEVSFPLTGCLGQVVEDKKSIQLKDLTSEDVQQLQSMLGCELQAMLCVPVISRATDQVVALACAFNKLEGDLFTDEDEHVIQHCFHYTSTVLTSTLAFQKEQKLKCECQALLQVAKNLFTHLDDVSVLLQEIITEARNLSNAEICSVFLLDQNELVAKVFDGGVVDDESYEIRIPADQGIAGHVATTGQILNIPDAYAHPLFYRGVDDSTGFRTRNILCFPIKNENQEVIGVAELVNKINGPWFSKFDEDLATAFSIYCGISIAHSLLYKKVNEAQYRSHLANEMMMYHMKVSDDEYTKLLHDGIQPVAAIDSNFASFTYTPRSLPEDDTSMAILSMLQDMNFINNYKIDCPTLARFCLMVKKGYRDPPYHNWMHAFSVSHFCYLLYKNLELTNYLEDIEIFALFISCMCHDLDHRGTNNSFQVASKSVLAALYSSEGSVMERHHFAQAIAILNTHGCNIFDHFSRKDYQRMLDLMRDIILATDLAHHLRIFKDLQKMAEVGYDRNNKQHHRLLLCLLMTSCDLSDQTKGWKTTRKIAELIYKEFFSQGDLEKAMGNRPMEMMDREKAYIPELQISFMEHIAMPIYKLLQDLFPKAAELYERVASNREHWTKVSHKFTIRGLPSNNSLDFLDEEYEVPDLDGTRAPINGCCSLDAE
cAMP and cAMP-inhibited cGMP 3',5'-cyclic phosphodiesterase 10A, sequence (Q9Y233 whole entry): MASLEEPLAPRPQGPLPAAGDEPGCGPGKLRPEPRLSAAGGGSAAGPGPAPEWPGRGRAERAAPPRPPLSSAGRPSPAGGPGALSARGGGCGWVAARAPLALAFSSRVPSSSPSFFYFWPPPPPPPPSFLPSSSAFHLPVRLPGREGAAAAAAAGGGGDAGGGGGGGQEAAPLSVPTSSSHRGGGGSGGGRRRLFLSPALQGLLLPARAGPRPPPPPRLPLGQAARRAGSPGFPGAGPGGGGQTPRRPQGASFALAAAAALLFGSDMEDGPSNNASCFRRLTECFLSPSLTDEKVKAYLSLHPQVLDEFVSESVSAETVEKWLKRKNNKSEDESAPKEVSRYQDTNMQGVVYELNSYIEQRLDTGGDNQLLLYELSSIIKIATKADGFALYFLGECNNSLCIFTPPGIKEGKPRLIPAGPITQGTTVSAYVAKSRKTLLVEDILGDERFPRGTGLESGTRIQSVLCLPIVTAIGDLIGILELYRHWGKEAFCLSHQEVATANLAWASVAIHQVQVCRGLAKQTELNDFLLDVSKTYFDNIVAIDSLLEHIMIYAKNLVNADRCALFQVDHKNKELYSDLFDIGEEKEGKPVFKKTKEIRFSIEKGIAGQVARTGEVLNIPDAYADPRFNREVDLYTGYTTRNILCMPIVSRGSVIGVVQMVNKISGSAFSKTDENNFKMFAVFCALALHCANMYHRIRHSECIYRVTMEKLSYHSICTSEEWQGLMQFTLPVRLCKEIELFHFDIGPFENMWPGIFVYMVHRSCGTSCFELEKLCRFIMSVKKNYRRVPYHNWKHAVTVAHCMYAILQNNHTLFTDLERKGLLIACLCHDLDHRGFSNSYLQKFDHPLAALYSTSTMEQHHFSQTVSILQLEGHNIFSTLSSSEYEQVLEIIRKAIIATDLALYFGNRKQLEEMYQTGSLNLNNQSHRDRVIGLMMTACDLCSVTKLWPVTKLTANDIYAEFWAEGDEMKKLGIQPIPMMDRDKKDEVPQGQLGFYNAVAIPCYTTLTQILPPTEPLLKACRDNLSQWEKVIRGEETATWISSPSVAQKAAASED

SMILES | IC50 [1] | IC50 [2] | IC50 [3] | IC50 [4] | IC50 [5] | IC50 [6] | further results
COc1cc(F)cc2c1nnc1c(C)nc(-c3cccnc3C)n12 | > 10 µM | > 5 µM | 2.83 µM | 1.27 µM | > 10 µM | 0.00784 µM | 
COc1ccc2nnc3c(C)nc(-c4ccccc4C)n3c2n1 | > 10 µM | 3.41 µM | 1.57 µM |  | > 5 µM | 0.0476 µM | 
COc1cc(OC(F)F)cc2c1nnc1c(C)nc(-c3ccncc3C)n12 | > 10 µM | 4.02 µM | 0.909 µM | 0.944 µM | > 10 µM | 0.007 µM | 
COc1cccc2c1nnc1c(C)nc(-c3ccccc3C)n12 | 0.176 µM | 3.67 µM | 1.98 µM |  | > 10 µM |  | Ratio IC50 [7]: 60
COc1cc(N2CCOCC2)cc2c1nnc1c(C)nc(-c3ccncc3C)n12 | > 10 µM | 5.38 µM | 3.12 µM | 0.00437 µM | > 10 µM |  | 
COc1ccc(F)c(-c2nc(C)c3nnc4ccc(OC)nc4n23)c1 | 4.82 µM | 0.702 µM | 0.734 µM |  | 1.82 µM |  | 
COc1cc(F)c2nnc3c(C)nc(-c4sccc4C)n3c2c1 | 3.67 µM | 2.78 µM | 1.23 µM |  | 2.25 µM |  | 
COc1ccc2nnc3c(C)nc(-c4cc(Cl)ccc4Cl)n3c2n1 | 4.41 µM | 1.15 µM | 0.829 µM | 0.00206 µM | 0.75 µM | 0.0531 µM | 
COc1cc(F)cc2c1nnc1c(C)nc(-c3ccncc3C)n12 | > 10 µM | > 10 µM | > 10 µM | 1.22 µM | > 10 µM | 0.0072 µM | 
COc1ccc2nnc3c(C)nc(-c4ccc(F)cc4Cl)n3c2n1 | > 1 µM | > 1 µM | 0.462 µM |  | > 1 µM |  | 
COc1cc(C(F)(F)F)cc2c1nnc1c(C)nc(-c3cnccc3C)n12 | > 10.001 µM | > 10 µM | 5.25 µM | 0.864 µM | > 10 µM | 0.00511 µM | 
COc1cc(N2CCOCC2)cc2c1nnc1c(C)nc(-c3ccccc3C)n12 | 2.92 µM | 0.651 µM | 0.693 µM |  | > 10 µM |  | 
COc1ccnc2c1nnc1c(C)nc(-c3ccncc3C)n12 | 3.68 µM | > 10 µM | > 10 µM |  | > 10 µM |  | Ratio IC50 [7]: > 100; Activity [8]: 55.4%; minimal effective dose [8]: 2.5 mg/kg; Ratio IC50 [9]: > 100; Activity [10]: 34.1%; minimal effective dose [10]: 2.5 mg/kg; Ratio IC50 [11]: > 100; Ratio IC50 [12]: > 100; Ratio IC50 [13]: > 100
COc1cc(OC)c2nnc3c(C)nc(-c4ccccc4C(F)(F)F)n3c2c1 | > 1 µM | > 1 µM | > 1 µM | 0.522 µM | > 1 µM | 0.00335 µM | 
COc1cc(F)cc2c1nnc1c(C)nc(-c3c(C)nn(C)c3C)n12 | > 10 µM | > 10 µM | > 5 µM |  | > 10 µM |  | 
COc1cc(OC)c2nnc3c(C)nc(-c4ccccc4C)n3c2c1 | > 10 µM | 1.11 µM | 0.349 µM | 0.0959 µM | > 10 µM | 0.00513 µM | 
COc1ccnc2c1nnc1c(C)nc(-c3cccnc3C)n12 | 6.96 µM | > 5 µM | > 5 µM | 0.974 µM | > 10 µM | 0.0124 µM | Ratio IC50 [7]: > 100; Ratio IC50 [14]: > 500; Ratio IC50 [9]: > 100; Ratio IC50 [15]: > 500; Ratio IC50 [11]: > 100; Ratio IC50 [16]: > 500; Ratio IC50 [12]: > 100; Ratio IC50 [17]: > 500; Ratio IC50 [18]: > 500; Ratio IC50 [13]: > 100
COc1cc(C(F)(F)F)cc2c1nnc1c(C)nc(-c3cccc(F)c3C)n12 | > 5 µM | 2.13 µM | 1.26 µM | 0.722 µM | > 5 µM | 0.00185 µM | 

SMILES | IC50 [1] | IC50 [2] | IC50 [3] | IC50 [4] | IC50 [5] | IC50 [6] | further results
COc1ccc2nnc3c(C)nc(-c4ccccc4Cl)n3c2n1 | > 10 µM | 1.68 µM | 0.435 µM | 0.0043 µM | 1.24 µM | 0.0131 µM | 
COc1cc(F)cc2c1nnc1c(C)nc(-c3sccc3C)n12 | 7.72 µM | 3.6 µM | 3.27 µM |  | > 10 µM |  | 
COc1cc(F)cc2c1nnc1c(C)nc(-c3cccc(F)c3C)n12 | > 1 µM | > 1 µM | > 1 µM |  | > 1 µM |  | 
COc1ccc2nnc3c(C)nc(-c4cc(OC(C)C)ccc4F)n3c2n1 |  |  |  | 0.102 µM |  | 2.43 µM | 
COc1cc(F)c2nnc3c(C)nc(-c4ccccc4OC)n3c2c1 | > 1 µM | > 1 µM | > 1 µM |  | > 1 µM |  | Ratio IC50 [7]: > 400
COc1cccc(-c2nc(C)c3nnc4c(OC)cc(F)cc4n23)c1 | > 1 µM | > 1 µM | > 1 µM | 2 µM | > 1 µM |  | 
COc1cc(F)cc2c1nnc1c(C)nc(-c3sc(C)nc3C)n12 | 2.46 µM | 4.76 µM | 3.88 µM |  | > 10 µM |  | 
COc1cc(OC)c2nnc3c(C)nc(-c4ccncc4C)n3c2c1 | > 10 µM | 4.95 µM | 1.24 µM |  | > 10 µM |  | Ratio IC50 [7]: 300; Activity [8]: 71.7%; minimal effective dose [8]: 0.5 mg/kg; bioavailability [19]: 100%; Activity [10]: 57.4%; minimal effective dose [10]: 0.5 mg/kg; Vd [20]: 0.4 L/kg; half-life [21]: 54 min; AUC [22]: 18700 ng·h/mL; clearance [23]: 13 mL/min/kg; AUC [24]: 2780 ng·h/mL
COc1ccccc1-c1nc(C)c2nnc3c(OC)cc(F)cc3n12 | > 10 µM | > 10 µM | > 10 µM |  | > 10 µM |  | 
COc1cc(F)cc2c1nnc1c(C)nc(-c3cnccc3C)n12 | > 10 µM | > 10 µM | > 10 µM |  | > 10 µM |  | 
COc1cccc2c1nnc1c(C)nc(-c3ccccc3Cl)n12 | 0.0708 µM | 3.06 µM | 1.06 µM |  | > 10 µM |  | 
COc1cc(OC)c2nnc3c(C)nc(-c4cccnc4C)n3c2c1 | > 10 µM | 1.43 µM | 0.493 µM |  | > 10 µM |  | Activity [8]: 90.2%; minimal effective dose [8]: 0.25 mg/kg; bioavailability [19]: 100%; Activity [10]: 71.3%; minimal effective dose [10]: 0.25 mg/kg; Vd [20]: 0.4 L/kg; half-life [21]: 120 min; AUC [22]: 21300 ng·h/mL; clearance [23]: 4 mL/min/kg; AUC [24]: 6590 ng·h/mL
COc1ccc2nnc3c(C)nc(-c4ccc(Cl)cc4Cl)n3c2n1 | > 1 µM | > 1 µM | > 1 µM |  | > 1 µM |  | 
COc1cc(N2CCOCC2)cc2c1nnc1c(C)nc(-c3ccccc3Cl)n12 | 2.68 µM | 0.603 µM | 0.276 µM |  | > 10 µM |  | 
COc1ccc2nnc3c(C)nc(-c4ccc(F)cc4C)n3c2n1 | > 10 µM | 34.1 µM | 1.15 µM | 0.0132 µM | 7.26 µM | 0.0459 µM | 
COc1cc(OC)c2nnc3c(C)nc(-c4cnccc4C)n3c2c1 | > 10 µM | 5.07 µM | 1.822 µM |  | > 10 µM |  | Activity [8]: 79.9%; minimal effective dose [8]: 1 mg/kg; bioavailability [19]: 100%; Activity [10]: 69.8%; minimal effective dose [10]: 1 mg/kg; Vd [20]: 0.5 L/kg; half-life [21]: 48 min; AUC [22]: 8790 ng·h/mL; clearance [23]: 14 mL/min/kg; AUC [24]: 3000 ng·h/mL
COc1cc(OC)c2nnc3c(C)nc(-c4ccccc4Cl)n3c2c1 | 1.91 µM | 0.436 µM | 0.07315 µM | 0.0303 µM | > 5 µM |  | Activity [8]: 70.3%; minimal effective dose [8]: 0.5 mg/kg; Activity [10]: 55.7%; minimal effective dose [10]: 0.5 mg/kg
